“And” between values parts separate entries of the source, which are not always exact repeats. Equal entries are not always repeated.
Tests used:
[1] = molar heat capacity at constant pressure; settings: 101 kPa, Liquid, Small sample (50 mg) DSC
[2] = Liquid, Vibrating tube method

CCCC(=O)[O-].C[NH2+]CCO [N-methyl-2-hydroxyethylammonium butanoate]
[1]
Settings | molar heat capacity at constant pressure
286.15 K | 357.3 J/K/mol
287.15 K | 358.4 J/K/mol
288.15 K | 357 J/K/mol
290.15 K | 358.9 J/K/mol
291.15 K | 360.7 J/K/mol
292.15 K | 356.8 J/K/mol
293.15 K | 358.6 J/K/mol
294.15 K | 361 J/K/mol and 360.1 J/K/mol
295.15 K | 358.1 J/K/mol and 360.9 J/K/mol
296.15 K | 361.7 J/K/mol and 357.1 J/K/mol
297.15 K | 362.7 J/K/mol and 358.9 J/K/mol
298.15 K | 363.2 J/K/mol and 359.6 J/K/mol
299.15 K | 364 J/K/mol and 360.7 J/K/mol
300.15 K | 364.6 J/K/mol and 361.2 J/K/mol
301.15 K | 361.7 J/K/mol and 365.3 J/K/mol
302.15 K | 362.2 J/K/mol and 365.8 J/K/mol
303.15 K | 362.3 J/K/mol and 366.4 J/K/mol
304.15 K | 362.8 J/K/mol and 367.1 J/K/mol
305.15 K | 363.3 J/K/mol and 367.6 J/K/mol
306.15 K | 363.8 J/K/mol and 368 J/K/mol
307.15 K | 364.3 J/K/mol and 368.5 J/K/mol
308.15 K | 364.8 J/K/mol and 368.9 J/K/mol
309.15 K | 364.9 J/K/mol and 369.4 J/K/mol
310.15 K | 365.4 J/K/mol and 369.7 J/K/mol
311.15 K | 365.8 J/K/mol and 370.3 J/K/mol
312.15 K | 366.4 J/K/mol and 370.8 J/K/mol
313.15 K | 367.2 J/K/mol and 371.5 J/K/mol
314.15 K | 368 J/K/mol and 372.1 J/K/mol
315.15 K | 368.7 J/K/mol and 372.8 J/K/mol
316.15 K | 369.2 J/K/mol and 373.6 J/K/mol
317.15 K | 369.5 J/K/mol and 374.3 J/K/mol
318.15 K | 369.7 J/K/mol and 374.7 J/K/mol
319.15 K | 370 J/K/mol and 375.4 J/K/mol
320.15 K | 370.2 J/K/mol and 375.7 J/K/mol
321.15 K | 370.7 J/K/mol and 376.2 J/K/mol
322.15 K | 371.2 J/K/mol and 376.9 J/K/mol
323.15 K | 371.5 J/K/mol and 377.5 J/K/mol
324.15 K | 372.1 J/K/mol and 378.2 J/K/mol
325.15 K | 372.8 J/K/mol and 378.7 J/K/mol
326.15 K | 373.8 J/K/mol and 379.3 J/K/mol
327.15 K | 374.7 J/K/mol and 380.1 J/K/mol
328.15 K | 375.4 J/K/mol and 380.6 J/K/mol
329.15 K | 375.7 J/K/mol and 381.3 J/K/mol
330.15 K | 375.6 J/K/mol and 381.8 J/K/mol
331.15 K | 375.4 J/K/mol and 382.1 J/K/mol
332.15 K | 375.2 J/K/mol and 382.9 J/K/mol
333.15 K | 374.9 J/K/mol and 383.1 J/K/mol
334.15 K | 375.2 J/K/mol and 383.9 J/K/mol
335.15 K | 375.7 J/K/mol and 384.7 J/K/mol
336.15 K | 377.2 J/K/mol

mass density [kg/m3], [2]
Settings | 298.15 K | 308.15 K | 318.15 K | 328.15 K | 338.15 K | 348.15 K | 358.15 K
100 kPa | 1035.29 | 1028.57 | 1021.88 | 1015.21 | 1008.57 | 1001.95 | 995.35
5000 kPa | 1037.49 | 1030.87 | 1024.28 | 1017.71 | 1011.17 | 1004.66 | 998.16
10000 kPa | 1039.66 | 1033.14 | 1026.66 | 1020.2 | 1013.77 | 1007.36 | 1000.98
15000 kPa | 1041.88 | 1035.43 | 1029.02 | 1022.64 | 1016.3 | 1010 | 1003.73
20000 kPa | 1043.97 | 1037.61 | 1031.28 | 1024.99 | 1018.73 | 1012.5 | 1006.31
25000 kPa | 1046.02 | 1039.73 | 1033.49 | 1027.31 | 1021.17 | 1015.08 | 1009.04

Source: the NIST ThermoML archive (doi:10.1016/j.jct.2013.09.010)
